Reference: ChEMBL document CHEMBL2390874, “Synthesis, antibacterial activity and cytotoxicity of new fused pyrazolo[1,5-a]pyrimidine and pyrazolo[5,1-c][1,2,4]triazine derivatives from new 5-aminopyrazoles” (Eur J Med Chem, 2013)
In brackets after ≈: the same amount, converted by molar mass. Activity calls are given as the source filed them. The rule behind the calls is not given here.

What was measured:
Salmonella typhimurium = assay: Antibacterial activity against Salmonella typhimurium ATCC 51812 assessed as growth inhibition at 1 mg/ml after 24 hrs by agar diffusion method; assay type: functional, organism-based; conditions: Salmonella enterica subsp. enterica serovar Typhimurium
Enterococcus faecalis = assay: Antibacterial activity against Enterococcus faecalis ATCC 14506 assessed as growth inhibition at 1 mg/ml after 24 hrs by agar diffusion method; assay type: functional, organism-based
[1] = test system: Staphylococcus epidermidis; assay: Antibacterial activity against Staphylococcus epidermidis ATCC 12228 assessed as growth inhibition at 1 mg/ml after 24 hrs by agar diffusion method; assay type: functional, organism-based
Staphylococcus aureus [2] = assay: Antibacterial activity against methicillin-resistant Staphylococcus aureus ATCC 43300 assessed as growth inhibition at 1 mg/ml after 24 hrs by agar diffusion method; assay type: functional, organism-based
[3] = Selectivity index, ratio of CC50 for african green monkey vero cells to MIC for Escherichia coli ATCC 10536; assay type: functional
[4] = Selectivity index, ratio of CC50 for african green monkey vero cells to MIC for Bacillus subtilis ATCC 11774; assay type: functional
[5] = Selectivity index, ratio of CC50 for african green monkey vero cells to MIC for Staphylococcus aureus ATCC 25923; assay type: functional
[6] = Cytotoxicity against african green monkey vero cells by MTT assay; assay type: cell-based; conditions: chlorocebus sabaeus
Staphylococcus aureus [7] = assay: Bactericidal activity against Staphylococcus aureus ATCC 25923 by broth dilution method; assay type: functional
Escherichia coli [8] = assay: Bactericidal activity against Escherichia coli ATCC 10536 by broth dilution method; assay type: functional
Bacillus subtilis [9] = assay: Bactericidal activity against Bacillus subtilis ATCC 11774 by broth dilution method; assay type: functional
Escherichia coli [10] = assay: Antibacterial activity against Escherichia coli ATCC 10536 assessed as growth inhibition by broth dilution method; assay type: functional
Staphylococcus aureus [11] = assay: Antibacterial activity against Staphylococcus aureus ATCC 25923 assessed as growth inhibition by broth dilution method; assay type: functional
Serratia marcescens = assay: Antibacterial activity against Serratia marcescens ATCC 13880 assessed as growth inhibition at 1 mg/ml after 24 hrs by agar diffusion method; assay type: functional; conditions: ATCC 13880, 24 h, read-out: DIZ
Bacillus subtilis [12] = assay: Antibacterial activity against Bacillus subtilis ATCC 11774 assessed as growth inhibition by broth dilution method; assay type: functional
Pseudomonas aeruginosa = assay: Antibacterial activity against Pseudomonas aeruginosa ATCC 10145 assessed as growth inhibition at 1 mg/ml after 24 hrs by agar diffusion method; assay type: functional; conditions: ATCC 10145, 24 h, read-out: DIZ
Escherichia coli [13] = assay: Antibacterial activity against Escherichia coli ATCC 10536 assessed as growth inhibition at 1 mg/ml after 24 hrs by agar diffusion method; assay type: functional; conditions: ATCC 10536, 24 h, read-out: DIZ
Staphylococcus aureus [14] = assay: Antibacterial activity against Staphylococcus aureus ATCC 25923 assessed as growth inhibition at 1 mg/ml after 24 hrs by agar diffusion method; assay type: functional; conditions: ATCC 25923, 24 h, read-out: DIZ
Bacillus subtilis [15] = assay: Antibacterial activity against Bacillus subtilis ATCC 11774 assessed as growth inhibition at 1 mg/ml after 24 hrs by agar diffusion method; assay type: functional; conditions: ATCC 11774, 24 h, read-out: DIZ

| Structure (SMILES) | growth inhibition (GI) (Salmonella typhimurium) | growth inhibition (GI) (Enterococcus faecalis) | growth inhibition (GI) [1] | growth inhibition (GI) (Staphylococcus aureus [2]) | other results |
| --- | --- | --- | --- | --- | --- |
| N#Cc1c(N)nc2c(C#N)c(N3CCOCC3)nn2c1N1CCCCC1 | inactive | inactive | inactive | inactive |  |
| CC(=O)c1nnc2c(C#N)c(N3CCCCC3)nn2c1C | inactive | inactive | inactive | inactive | Selectivity Index [3]: 0.02; Selectivity Index [4]: 0.02; Selectivity Index [5]: 0.02; CC50 [6]: 0.312 mg/mL (≈ 1.1 mM); MBC (Staphylococcus aureus [7]): 16 mg/mL (≈ 56.3 mM); MBC (Escherichia coli [8]): 16 mg/mL (≈ 56.3 mM); MBC (Bacillus subtilis [9]): 16 mg/mL (≈ 56.3 mM); MIC (Escherichia coli [10]): 16 mg/mL (≈ 56.3 mM); MIC (Staphylococcus aureus [11]): 16 mg/mL (≈ 56.3 mM); zone of inhibition at 1000 µg/mL (Serratia marcescens): 6 mm; MIC (Bacillus subtilis [12]): 16 mg/mL (≈ 56.3 mM); zone of inhibition at 1000 µg/mL (Pseudomonas aeruginosa): 6 mm; zone of inhibition at 1000 µg/mL (Escherichia coli [13]): 8 mm; zone of inhibition at 1000 µg/mL (Staphylococcus aureus [14]): 9 mm; zone of inhibition at 1000 µg/mL (Bacillus subtilis [15]): 10 mm |
| Cc1ccc(C)n1-c1[nH]nc(N2CCOCC2)c1C#N | inactive | inactive | inactive | inactive | Selectivity Index [3]: 0.06; Selectivity Index [4]: 0.13; Selectivity Index [5]: 0.06; CC50 [6]: 0.254 mg/mL (≈ 0.936 mM); MBC (Staphylococcus aureus [7]): 4 mg/mL (≈ 14.7 mM); MBC (Escherichia coli [8]): 8 mg/mL (≈ 29.5 mM); MBC (Bacillus subtilis [9]): 4 mg/mL (≈ 14.7 mM); MIC (Escherichia coli [10]): 4 mg/mL (≈ 14.7 mM); MIC (Staphylococcus aureus [11]): 2 mg/mL (≈ 7.37 mM); zone of inhibition at 1000 µg/mL (Serratia marcescens): 6 mm; MIC (Bacillus subtilis [12]): 2 mg/mL (≈ 7.37 mM); zone of inhibition at 1000 µg/mL (Pseudomonas aeruginosa): 6 mm; zone of inhibition at 1000 µg/mL (Escherichia coli [13]): 10 mm; zone of inhibition at 1000 µg/mL (Staphylococcus aureus [14]): 10 mm; zone of inhibition at 1000 µg/mL (Bacillus subtilis [15]): 14 mm |
| Cc1cc(O)n2nc(N3CCCC3)c(C#N)c2n1 | inactive | inactive | inactive | inactive |  |
| N#Cc1nnc2c(C#N)c(N3CCCC3)nn2c1N | inactive | inactive | inactive | inactive |  |
| CC(=O)c1nnc2c(C#N)c(N3CCCC3)nn2c1C | inactive | inactive | inactive | inactive |  |
| CC(=O)n1nc(N2CCOCC2)c(C#N)c1N | inactive | inactive | inactive | inactive |  |
| N#Cc1c(N)nc2c(C#N)c(N3CCCC3)nn2c1N1CCCCC1 | inactive | inactive | inactive | inactive |  |
| Cc1cc(C)n2nc(N3CCOCC3)c(C#N)c2n1 | inactive | inactive | inactive | inactive |  |
| N#Cc1c(N)nc2c(C#N)c(N3CCCC3)nn2c1N1CCOCC1 | inactive | inactive | inactive | inactive |  |
| N#Cc1nnc2c(C#N)c(N3CCOCC3)nn2c1N | inactive | inactive | inactive | inactive |  |
| CSc1c(C#N)c(N)nc2c(C#N)c(N3CCCC3)nn12 | inactive | inactive | inactive | inactive |  |
| Cc1cc(C)n2nc(N3CCCC3)c(C#N)c2n1 | inactive | inactive | inactive | inactive |  |
| Cc1cc(O)n2nc(N3CCCCC3)c(C#N)c2n1 | inactive | inactive | inactive | inactive |  |
| CC(=O)n1nc(N2CCCCC2)c(C#N)c1N | inactive | inactive | inactive | inactive | Selectivity Index [4]: 0.06; CC50 [6]: 1.01 mg/mL (≈ 4.35 mM); MBC (Staphylococcus aureus [7]): > 16 mg/mL; MBC (Escherichia coli [8]): 16 mg/mL (≈ 68.6 mM); MBC (Bacillus subtilis [9]): 16 mg/mL (≈ 68.6 mM); MIC (Escherichia coli [10]): 16 mg/mL (≈ 68.6 mM); MIC (Staphylococcus aureus [11]): 16 mg/mL (≈ 68.6 mM); zone of inhibition at 1000 µg/mL (Serratia marcescens): 6 mm; MIC (Bacillus subtilis [12]): 16 mg/mL (≈ 68.6 mM); zone of inhibition at 1000 µg/mL (Pseudomonas aeruginosa): 6 mm; zone of inhibition at 1000 µg/mL (Escherichia coli [13]): 10 mm; zone of inhibition at 1000 µg/mL (Staphylococcus aureus [14]): 10 mm; zone of inhibition at 1000 µg/mL (Bacillus subtilis [15]): 6 mm |
| N#Cc1c(N)nc2c(C#N)c(N3CCOCC3)nn2c1N1CCOCC1 | inactive | inactive | inactive | inactive |  |
| CSc1c(C#N)c(N)nc2c(C#N)c(N3CCOCC3)nn12 | inactive | inactive | inactive | inactive |  |
| CC(=O)c1nnc2c(C#N)c(N3CCOCC3)nn2c1C | inactive | inactive | inactive | inactive |  |
